# Experimental data from patent US20200261391A1, “METHODS OF REDUCING THE RISK OF A CARDIOVASCULAR EVENT IN A STATIN-TREATED SUBJECT BY INCREASING SERUM AND PLASMA EPA AND DPA LEVELS” (Amarin Pharmaceuticals Ireland Limited, priority 2019, published 2020).
# Values joined by “and” are separate entries in the source; they are usually repeats but may differ in a detail not shown here. Identical values can stand only once.
# Key:
# Type in all cases: in vivo, human
# [1] = system: patients with elevated triglyceride levels on statin therapy; experiment: REDUCE-IT endpoints by pooled (icosapent ethyl and placebo) EPA blood level tertile; details: icosapent ethyl and placebo pooled
# Description: (§1) The objective of this study is to assess the effects of administering icosapent ethyl at 4 g per day to patients from the REDUCE-IT trial of Example 1. More specifically, patients from the REDUCE-IT trial of Example 1 were stratified by their EPA levels into one of three tertiles. Following stratification, the objective was to determine if the RRR differs between patients having EPA levels in the three different tertiles. For the data collected as shown in Tables 38-43 and FIGS. 52, 53, and 56-59, the tertiles were established based on data collected from subjects at 1 year, 2 years, and last visit following icosapent ethyl administration compared to placebo. Data are presented as an average of 1 year, 2 year, […], and end of study values. The data was further analyzed use both pooled and unpooled statistically methods.
# (0.84 for lowest vs. placebo, 0.72 for middle vs. placebo, and 0.65 for highest vs. placebo).
# [2] = system: patients with elevated triglyceride levels on statin therapy; experiment: REDUCE-IT endpoints by EPA/AA ratio tertile in the icosapent ethyl group compared to placebo; details: EPA/AA ≤0.373068; on-treatment average of year 1, year 2, last visit
# [3] = system: patients with elevated triglyceride levels on statin therapy; experiment: as above
# Experimental: This is a study aimed towards determining a relative risk reduction (RRR) between subjects stratified by EPA tertiles in the REDUCE-IT clinical trial described above in Example 1. Samples were obtained from those subjects and total EPA and AA levels in human serum and plasma samples were determined according at least to the methods described in Example 7.
# as §1
# [4] = highest >118.1 μg/mL vs lowest ≤31.305 μg/mL
# [5] = highest >118.1 μg/mL vs middle >31.305 to ≤118.1 μg/mL
# [6] = middle >31.305 to ≤118.1 μg/mL vs lowest ≤31.305 μg/mL
# [7] = EPA/AA >0.373068 to ≤0.727974, on-treatment average
# [8] = EPA/AA >0.727974, on-treatment average
smiles,measurement,setting,value
"CC/C=C\C/C=C\C/C=C\C/C=C\C/C=C\CCCC(=O)OCC [icosapent ethyl, eicosapentaenoic acid ethyl ester]","HR (95% CI), Key Secondary Endpoint, pooled EPA tertiles, Highest vs Lowest",[1]; [4],"0.61 (0.51, 0.71)"
same,"HR (95% CI), Primary Endpoint, pooled EPA tertiles, Highest vs Lowest",[1]; [4],"0.65 (0.57, 0.74)"
same,"HR (95% CI), Key Secondary Endpoint, pooled EPA tertiles, Highest vs Middle",[1]; [5],"0.78 (0.65, 0.92)"
same,"HR (95% CI), Primary Endpoint, pooled EPA tertiles, Highest vs Middle",[1]; [5],"0.80 (0.70, 0.92)"
same,"HR (95% CI), Key Secondary Endpoint, pooled EPA tertiles, Middle vs Lowest",[1]; [6],"0.78 (0.67, 0.91)"
same,"HR (95% CI), Primary Endpoint, pooled EPA tertiles, Middle vs Lowest",[1]; [6],"0.81 (0.71, 0.92)"
same,"HR (95% CI), Primary Endpoint, Lowest EPA/AA ratio tertile vs Placebo",[2],"0.83 (0.71, 0.97)"
same,"key secondary endpoint HR, middle EPA/AA tertile vs. placebo",[3]; EPA/AA >0.373068 to ≤0.727974,0.61
same,"primary endpoint HR, middle EPA/AA tertile vs. placebo",[3]; EPA/AA >0.373068 to ≤0.727974,0.70
same,"HR (95% CI), Key Secondary Endpoint, Middle EPA/AA ratio tertile vs Placebo",[3]; [7],"0.61 (0.49, 0.75)"
same,"HR (95% CI), Primary Endpoint, Middle EPA/AA ratio tertile vs Placebo",[3]; [7],"0.70 (0.59, 0.82)"
same,"key secondary endpoint HR, highest EPA/AA tertile vs. placebo",[3]; EPA/AA >0.727974,0.65
same,"primary endpoint HR, highest EPA/AA tertile vs. placebo",[3]; EPA/AA >0.727974,0.67
same,"HR (95% CI), Key Secondary Endpoint, Highest EPA/AA ratio tertile vs Placebo",[3]; [8],"0.65 (0.54, 0.80)"
same,"HR (95% CI), Primary Endpoint, Highest EPA/AA ratio tertile vs Placebo",[3]; [8],"0.67 (0.57, 0.79)"
same,"key secondary endpoint HR, lowest EPA/AA tertile vs. placebo",[3]; EPA/AA ≤0.373068,0.94
same,"primary endpoint HR, lowest EPA/AA tertile vs. placebo",[3]; EPA/AA ≤0.373068,0.83
same,"HR (95% CI), Key Secondary Endpoint, Lowest EPA/AA ratio tertile vs Placebo","[3]; EPA/AA ≤0.373068, on-treatment average","0.94 (0.78, 1.13)"
same,"primary endpoint HR, highest EPA/AA tertile vs. placebo","[3]; FIG. 55, ITT, EPA/AA >0.7403",0.70 and 0.63
same,"primary endpoint HR, lowest EPA/AA tertile vs. placebo","[3]; FIG. 55, ITT, EPA/AA ≤0.3845",0.88
